US9629866B2, “Use of cordycepin in manufacture of medicaments for anti-depression” (BEIJING GRAGEN BIOTECHNOLOGY CO. LTD., priority 2012, dated 2017)

How the values were obtained:
Type in all cases: in vivo
CD1 male mice [1] = experiment: Mice tail suspension test (animal depression model)
Description: In the mice tail suspension test, mice present the special quiet immobility state without any struggle in the tail suspension state, and antidepressant drugs can obviously shorten the duration of the immobility state. When tested, mice tails are fixed with clips, hanging upside-down. […] The time of immobility is recorded. The immobility indicator is “animal has no body movement in addition to breathing”. […] Laboratory Animal: CD1 mice, male, 25 g˜35 g, provided by Beijing Vital River Laboratories (VRL) (License No.: SCXK (Beijing), 2011-0011). Animals were kept in separate cages with free access to water; feed is provided by Laboratory Animal Center, Institute of Genetics and Developmental Biology, Chinese Academy of Sciences; laboratory mice ate ordinary feed. […] Drugs were delivered at 10 a.m. by intraperitoneal injection, 90 minutes after which tail suspension test statistics started. In mice tail suspension test, mice tails were stuck to a horizontal rail with tape 2 cm away from the tail tip, making animals upside down, whose heads were about 15 cm from the desktop. After observing for 6 minutes, the accumulative immobility time within the following 4 minutes was recorded. The immobility indicator was “animal has no body movement in addition to breathing”. Statistical Method: The laboratory results were all expressed by “mean value±SE”; two sample means were compared by t test.

CD1 male mice [2] = experiment: Mice forced swimming test; conditions: for forced swimming immobility time within 4 minutes: blank control 111.96±14.58 s, mean±SE, P<0.05
Excerpt: “Immobility” herein refers to that “animals stop struggling in the water, or stay in a floating state, only showing nostrils for breathing with only small body movement to keep the head floating on the water”. Before the test, the drugs to be screened are given. The animals in the condition of forced swimming cannot escape from the harsh environment, leading to despairing animal behaviors. […] Laboratory Animal: CD1 mice, male, provided by Beijing Vital River Laboratories (VRL) (License No.: SCXK (Beijing), 2011-0011). Animals were kept in separate cages a week before test, with a light and shade cycle of 12 h/12 h, at room temperature 20° C.˜22° C., and with free access to water and food. Feed is provided by Laboratory Animal Center, Institute of Genetics and Developmental Biology, Chinese Academy of Sciences. CD1 mice, 7 weeks old, 25 g-35 g, were used for test after acclimating for 1 week. Mice were divided into 5 groups randomly, 8 mice for each. They were treated in the same way as Example 1: Drugs were delivered at 10 a.m. by intraperitoneal injection, once a day for 3 days, then forced swimming test started. Forced swimming test: All CD1 mice in each group were separately and vertically put into the organic glass cylinder (40 cm×14 cm in diameter) with 15 cm-depth and 23° C. water. After recoding a video of each dose group and control group for 6 minutes, the accumulative immobility time within the following 4 minutes was compared between each group. […] The laboratory results were all expressed by “mean value±SE”; two sample means were compared by t test.

CD1 male mice [3] = experiment: Mice open field test to verify central excitability; conditions: measuring time 1 h/mouse, control 424.15+82.78 s, Anova p>0.05, N=12
Excerpt: Laboratory materials and methods are the same as Example 1 and Example 2.
Considering that the reduced immobility time of animals in classic animal depression models may be due to the central excitability effect of drugs, we conducted a mice open field test to verify the central excitability of cordycepin. Mice were processed 1 d before the open field behavior test. They were kept in the open box with 80 cm in both length and width, 40 cm in height, black wall, 16 equal sections in area, and indoor sound insulation. After the test started, mice were put in the middle of the box, and the time of mice staying in the central 4 sections was taken as a parameter. The measuring time was 1 h/mouse every time. […] Besides, there is no rising trend, so for cordycepin, the possibility of causing the manic state can be ruled out.

[4] = high-dose 12.5 mg/kg i.p. once a day for 3 days
[5] = low-dose 5 mg/kg i.p. once a day for 3 days

SMILES: Nc1ncnc2c1ncn2[C@@H]1O[C@H](CO)C[C@H]1O [cordycepin, 3′-deoxyadenosine]
- time needed for antidepressant effect to be very obvious (CD1 male mice [1]; high-dose 12.5 mg/kg i.p.): 1.5 h
- decrease of tail suspension immobility time vs blank control (CD1 male mice [1]; high-dose 12.5 mg/kg i.p., 90 min after injection): 60.8%
- tail suspension immobility time (CD1 male mice [1]; high-dose 12.5 mg/kg i.p., 90 min after injection, blank control 86.43±20.37 s, mean±SE, P<0.05): 33.86 ± 7.46 s
- tail suspension immobility time vs control (CD1 male mice [1]; low-dose 5 mg/kg i.p., 90 min after injection): has not been significantly reduced
- antidepressant effect compared with imipramine (15 mg/kg) (CD1 male mice [2]; [4]): stronger antidepressant effects
- decrease of forced swimming immobility time vs blank control (CD1 male mice [2]; [4]): 68.8%
- forced swimming immobility time within 4 minutes (CD1 male mice [2]; [4]): 34.94 ± 12.16 s
- decrease of forced swimming immobility time vs blank control (CD1 male mice [2]; [5]): 37.6%
- forced swimming immobility time within 4 minutes (CD1 male mice [2]; [5]): 69.88 ± 10.25 s
- time staying in the central 4 sections (CD1 male mice [3]; high-dose group): 379.88+95.28 s
- time staying in the central 4 sections (CD1 male mice [3]; low-dose group): 399.75+72.25 s
